This is an account of results in patent US20130143835A1, “HCV Polymerase Inhibitors” (MEDIVIR AB, priority 2011, published 2013).

In the first assay the test system is HCV type 1b replicon in Huh-7 luc/neo (Huh-Luc) cells. The assay is described as follows: HCV replicon assay (Huh-Luc cells, luciferase read-out). In kind it is cell-based. The conditions noted are these: Hepatitis C virus, Huh-7, 72 h, inhibition of HCV replication, three days incubation, luciferase activity. The source says: The in vitro antiviral activity against HCV of the compounds of formula I can be tested in a cellular HCV replicon system based on Lohmann et al. (1999) Science 285:110-113, with the further modifications described by Krieger et al. (2001) Journal of Virology 75: 4614-4624 (incorporated herein by reference), which is further exemplified in the examples section. This model, while not a complete infection model for HCV, is widely accepted as the most robust and efficient model of autonomous HCV RNA replication currently available. It will be appreciated that it is important to distinguish between compounds that specifically interfere with HCV functions from those that exert cytotoxic or cytostatic effects in the HCV replicon model, and as a consequence cause a decrease in HCV RNA or linked reporter enzyme concentration. Assays are known in the field for the evaluation of cellular cytotoxicity based for example on the activity of mitochondrial enzymes using fluorogenic redox dyes such as resazurin. Furthermore, cellular counter screens exist for the evaluation of non-selective inhibition of linked reporter gene activity, such as firefly luciferase. Appropriate cell types can be equipped by stable transfection with a luciferase reporter gene whose expression is dependent on a constitutively active gene promoter, and such cells can be used as a counter-screen to eliminate non-selective inhibitors.
The compounds of formula I may be examined for activity in the inhibition of HCV RNA replication in a cellular assay aimed at identifying compounds that inhibit a HCV functional cellular replicating cell line, also known as HCV replicons. A suitable cellular assay is based on a bicistronic expression construct, as described by Lohmann et al. (1999), Science vol. 285 pp. 110-113 with modifications described by Krieger et al. (2001), Journal of Virology 75: 4614-4624, in a multi-target screening strategy.
The assay utilizes the stably transfected cell line Huh-7 luc/neo (hereafter referred to as Huh-Luc). This cell line harbors an RNA encoding a bicistronic expression construct comprising the wild type NS3-NS5B regions of HCV type 1b translated from an Internal Ribosome Entry Site (IRES) from encephalomyocarditis virus (EMCV), preceded by a reporter portion (FfL-luciferase), and a selectable marker portion (neo^R, neomycine phosphotransferase). The construct is bordered by 5′ and 3′ NTRs (non-translated regions) from HCV type 1b. Continued culture of the replicon cells in the presence of G418 (neo^R) is dependent on the replication of the HCV RNA. The stably transfected replicon cells that express HCV RNA, which replicates autonomously and to high levels, encoding inter alia luciferase, are used for screening the antiviral compounds.
The replicon cells are plated in 384 well plates in the presence of the test and control compounds which are added in various concentrations. Following an incubation of three days, HCV replication is measured by assaying luciferase activity (using standard luciferase assay substrates and reagents and a Perkin Elmer ViewLux™ ultraHTS microplate imager). Replicon cells in the control cultures have high luciferase expression in the absence of any inhibitor. The inhibitory activity of a compound on luciferase activity is monitored on the Huh-Luc cells, enabling a dose-response curve for each test compound. EC50 values are then calculated, which value represents the amount of the compound required to decrease the level of detected luciferase activity by 50%, or more specifically, the ability of the genetically linked HCV replicon RNA to replicate.
On to `CCCOC(=O)[C@H](C)NP(=O)(OC[C@H]1O[C@@H](n2ccc(=O)[nH]c2=O)[C@](C)(N)[C@@H]1O)Oc1ccccc1` (single isomer, unassigned) [Example 24A], for which the concentration for a half-maximal effect (EC50) stood at 2900 nM.

Still in this assay, the particulars now being: inhibition of HCV replication, three days incubation, luciferase activity.
As to `CC[C@@H](C)OC(=O)[C@H](C)NP(=O)(OC[C@H]1O[C@@H](n2ccc(=O)[nH]c2=O)[C@](C)(N)[C@@H]1O)Oc1ccccc1` (single isomer, unassigned) [Example 21B], the 50% effective concentration (EC50) is 740 nM.

With `CC(C)COC(=O)[C@H](C)NP(=O)(OC[C@H]1O[C@@H](n2ccc(=O)[nH]c2=O)[C@](C)(N)[C@@H]1O)Oc1ccccc1` (single isomer, unassigned) [Example 17A], the EC50 is 2600 nM.

With `CCCCCOC(=O)[C@H](C)NP(=O)(OC[C@H]1O[C@@H](n2ccc(=O)[nH]c2=O)[C@](C)(N)[C@@H]1O)Oc1ccccc1` (single isomer, unassigned) [Example 18A], the EC50 was found to be 1800 nM.

Take `CCCCOC(=O)[C@H](C)NP(=O)(OC[C@H]1O[C@@H](n2ccc(=O)[nH]c2=O)[C@](C)(N)[C@@H]1O)Oc1ccccc1` (single isomer, unassigned) [Example 19A]: the EC50 is 1400 nM.

For the compound `CC(C)OC(=O)[C@H](C)NP(=O)(OC[C@H]1O[C@@H](n2ccc(=O)[nH]c2=O)[C@](C)(N)[C@@H]1O)Oc1ccccc1` (single isomer, unassigned) [Example 9B], the EC50 amounted to 920 nM.

As to `C[C@H](NP(=O)(OC[C@H]1O[C@@H](n2ccc(=O)[nH]c2=O)[C@](C)(N)[C@@H]1O)Oc1ccccc1)C(=O)OCCC(C)(C)C` (single isomer, unassigned) [Example 6A], the EC50 was 2300 nM.

In the case of `C[C@@]1(N)[C@H](O)[C@@H](COP(=O)(O)O)O[C@H]1n1ccc(=O)[nH]c1=O` [Example 4, ((2R,3S,4R,5R)-4-amino-5-(2,4-dioxo-3,4-dihydropyrimidin-1(2H)-yl)-3-hydroxy-4-methyltetrahydrofuran-2-yl)methyl dihydrogen Phosphate], the 50% effective concentration (EC50) was greater than 50000 nM.

Regarding `CC(C)COC(=O)[C@H](C)NP(=O)(OC[C@H]1O[C@@H](n2ccc(=O)[nH]c2=O)[C@](C)(N)[C@@H]1O)Oc1ccccc1` (single isomer, unassigned) [Example 17B], the EC50 was 600 nM.

In the case of `C[C@H](NP(=O)(OC[C@H]1O[C@@H](n2ccc(=O)[nH]c2=O)[C@](C)(N)[C@@H]1O)Oc1ccccc1)C(=O)OCCC(C)(C)C` (single isomer, unassigned) [Example 6B], the EC50 was 490 nM.

As for `C[C@H](NP(=O)(OC[C@H]1O[C@@H](n2ccc(=O)[nH]c2=O)[C@](C)(N)[C@@H]1O)Oc1ccccc1)C(=O)OC1CCC1` (single isomer, unassigned) [Example 8B], the concentration for a half-maximal effect (EC50) is 800 nM.

`CCCC(CCC)COC(=O)[C@H](C)NP(=O)(OC[C@H]1O[C@@H](n2ccc(=O)[nH]c2=O)[C@](C)(N)[C@@H]1O)Oc1ccccc1` (single isomer, unassigned) [Example 14B]: the concentration giving a half-maximal response (EC50) was 420 nM.

In the case of `C[C@H](NP(=O)(OC[C@H]1O[C@@H](n2ccc(=O)[nH]c2=O)[C@](C)(N)[C@@H]1O)Oc1ccccc1)C(=O)OCC(C)(C)C` (single isomer, unassigned) [Example 13B], the EC50 is 300 nM.

Turning to `COC(=O)[C@H](C)NP(=O)(OC[C@H]1O[C@@H](n2ccc(=O)[nH]c2=O)[C@](C)(N)[C@@H]1O)Oc1ccccc1` (single isomer, unassigned) [Example 16B], the EC50 worked out at 2100 nM.

As to `CCC(CC)OC(=O)[C@H](C)NP(=O)(OC[C@H]1O[C@@H](n2ccc(=O)[nH]c2=O)[C@](C)(N)[C@@H]1O)Oc1ccccc1` (single isomer, unassigned) [Example 28A], the concentration for a half-maximal effect (EC50) was determined as 34000 nM.

`CCOC(=O)[C@H](C)NP(=O)(OC[C@H]1O[C@@H](n2ccc(=O)[nH]c2=O)[C@](C)(N)[C@@H]1O)Oc1ccccc1` (single isomer, unassigned) [Example 11B]: the concentration for a half-maximal effect (EC50) worked out at 980 nM.

On to `C[C@H](NP(=O)(OC[C@H]1O[C@@H](n2ccc(=O)[nH]c2=O)[C@](C)(N)[C@@H]1O)Oc1ccccc1)C(=O)OC1CCCCC1` (single isomer, unassigned) [Example 12A], for which the EC50 worked out at 380 nM.
